Results: article PMC11984407, “A natural small molecule isoginkgetin alleviates hypercholesterolemia and atherosclerosis by targeting ACLY” (Theranostics, 2025)

Tests used:
[1] = test system: primary mouse hepatocytes; assay: De novo lipogenesis in vitro, [1,2-14C]-acetate incorporation; type: cell-based; settings: 2.5 μmol/L and 5 μmol/L, 4 h
Method: Hepatocytes were seeded in 6-well plates at a density of 6 x 10^5 cells per well. They were exposed to various compounds along with [1,2-^14C]-acetate (0.1 μCi per well) for specified durations. Following treatment, the cells underwent washing with cold PBS and were lysed in 0.4 to 0.6 mL of 0.5 M KOH. The saponification process at 95 °C for 3 h with 0.4 mL of KOH (in 20% methanol solution) enabled the separation of cholesterol and fatty acids. Cholesterol, being nonpolar, was extracted using 0.5 mL of petroleum ether in three separate instances. In comparison, polar fatty acids were extracted with 0.5 mL of petroleum ether after adding 0.2 mL of H2O and 0.4 mL of 5 M H2SO4 in three rounds. The petroleum ether extracts were left to air dry at room temperature overnight. The radioactivity of the resultant products was quantified using a liquid scintillation counter.

recombinant ACLY protein = target: T1, recombinant ACLY protein (Homo sapiens, UniProt P53396); assay: Surface plasmon resonance (OpenSPR); type: binding; settings: SPR, 1:1 Langmuir model; read-out: equilibrium dissociation constant (KD)
T1 sequence (P53396 1-1101): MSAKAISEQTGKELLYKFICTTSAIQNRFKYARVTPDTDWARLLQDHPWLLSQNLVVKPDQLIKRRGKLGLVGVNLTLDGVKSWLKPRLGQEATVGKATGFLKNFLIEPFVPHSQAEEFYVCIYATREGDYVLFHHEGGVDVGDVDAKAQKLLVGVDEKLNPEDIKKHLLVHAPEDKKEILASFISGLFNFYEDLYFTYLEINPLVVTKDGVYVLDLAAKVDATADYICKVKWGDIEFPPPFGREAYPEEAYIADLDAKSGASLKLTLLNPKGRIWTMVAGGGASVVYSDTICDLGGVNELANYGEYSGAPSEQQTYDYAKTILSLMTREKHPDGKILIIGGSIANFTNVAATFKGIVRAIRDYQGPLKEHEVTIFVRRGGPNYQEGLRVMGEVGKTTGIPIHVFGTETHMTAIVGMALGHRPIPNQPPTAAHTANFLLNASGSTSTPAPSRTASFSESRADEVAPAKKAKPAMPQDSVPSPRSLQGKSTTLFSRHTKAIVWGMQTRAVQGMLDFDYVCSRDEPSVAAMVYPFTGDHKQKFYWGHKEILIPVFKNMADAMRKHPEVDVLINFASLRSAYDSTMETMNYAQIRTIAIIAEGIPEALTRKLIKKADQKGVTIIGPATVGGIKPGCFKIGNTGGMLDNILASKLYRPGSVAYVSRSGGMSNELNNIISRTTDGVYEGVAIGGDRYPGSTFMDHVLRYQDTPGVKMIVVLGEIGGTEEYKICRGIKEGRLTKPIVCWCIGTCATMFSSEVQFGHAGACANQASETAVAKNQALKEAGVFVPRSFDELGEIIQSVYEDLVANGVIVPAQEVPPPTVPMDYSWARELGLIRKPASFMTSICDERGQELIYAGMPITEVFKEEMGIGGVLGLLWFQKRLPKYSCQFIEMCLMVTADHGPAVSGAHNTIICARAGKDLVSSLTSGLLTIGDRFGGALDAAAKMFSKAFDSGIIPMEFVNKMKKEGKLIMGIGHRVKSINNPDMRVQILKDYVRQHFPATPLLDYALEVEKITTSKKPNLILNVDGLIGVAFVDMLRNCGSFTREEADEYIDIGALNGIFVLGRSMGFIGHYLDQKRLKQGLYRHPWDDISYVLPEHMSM
Method: The interaction between isoginkgetin and ACLY was examined using an OpenSPR instrument (Nicaya, Canada). The recombinant ACLY protein was immobilized on a carboxyl sensor chip (SEN-AU-100-3-COOH; Nicaya, Canada) via a standard amine coupling method. Isoginkgetin was injected into the running buffer at various concentrations (ranging from 0.5 to 8 μM) at a flow rate of 20 μL/min. The interaction parameter KD was determined using TraceDrawer evaluation software based on the 1:1 Langmuir binding model.

hERG channel = target: T2, hERG channel (Homo sapiens, UniProt Q12809); assay: Manual whole-cell patch clamp on HEK cells stably expressing hERG; type: cell-based
T2 construct: expressed in transfected cells
Method: The whole-cell patch clamp technique was employed for the experiments. Previously published works detail the methodologies and solutions used for capturing various currents in cardiomyocytes and in HEK cell lines that stably express different K^+ channels. Specifically, the standard bath solution with 5 mM K^+ consisted of 135 mM NaCl, 5 mM KCl, 2 mM CaCl2, 1 mM MgCl2, 10 mM glucose, and 10 mM HEPES, adjusted to pH 7.4 using NaOH. Meanwhile, the bath solution containing 135 mM K^+ was made of 135 mM KCl, 2 mM CaCl2, 1 mM MgCl2, 10 mM glucose, and 10 mM HEPES, with the pH set to 7.4 by adding KOH. All experiments using the patch clamp method were conducted at a controlled room temperature of 22 ± 1 °C.

[2] = test system: primary hepatocytes from C57BL/6J mouse; assay: CCK8 cell viability, primary hepatocytes; type: cell-based; settings: concentrations below 7.5 μmol/L, 12 h
Method: The cellular viability was assessed by conducting CCK8 assays in primary hepatocytes from C57BL/6J mouse and HepG2 cell line. Specifically, 2,000 cells per well were plated in 96-well plates and cultured with different concentrations of ISOGK for 12 h. Following this, cell absorption was quantified using a CCK8 kit (CA1210, Solarbio, Beijing, China), adhering strictly to the manufacturer's guidelines. The presented data represents the findings from three independent experiments, with each experiment consisting of four replicates.

[3] = Copper-induced LDL oxidation, agarose gel electrophoresis; settings: varying concentrations, copper 5 μM
Method: Prior to oxidation, EDTA was removed from LDL solutions (YB-001; Yiyuan Biotechnologies, Guangzhou, China). Subsequently, LDL solutions at a concentration of 0.2 mg/mL were incubated with varying concentrations of ISOGK in PBS for one h at 37 °C. The oxidation process was initiated by combining both native LDL and LDL pretreated with ISOGK with copper sulfate (99.0% purity; Jinshanting New Chemical Reagent Factory, Shanghai, China) to achieve a final copper concentration of 5 μM in PBS. This mixture was then incubated at 37 °C. Agarose gel electrophoresis was performed utilizing 0.5% agarose gels prepared in a sodium barbital buffer, following the stipulated electrophoretic methodology. The procedure was carried out in a 0.075 M sodium barbital buffer at a constant voltage of 55 V for a duration of one h. The relative electrophoretic mobility (REM) was determined by calculating the ratio of the migration distance of oxidized LDL to that of native LDL.

T2 sequence (Q12809 whole entry): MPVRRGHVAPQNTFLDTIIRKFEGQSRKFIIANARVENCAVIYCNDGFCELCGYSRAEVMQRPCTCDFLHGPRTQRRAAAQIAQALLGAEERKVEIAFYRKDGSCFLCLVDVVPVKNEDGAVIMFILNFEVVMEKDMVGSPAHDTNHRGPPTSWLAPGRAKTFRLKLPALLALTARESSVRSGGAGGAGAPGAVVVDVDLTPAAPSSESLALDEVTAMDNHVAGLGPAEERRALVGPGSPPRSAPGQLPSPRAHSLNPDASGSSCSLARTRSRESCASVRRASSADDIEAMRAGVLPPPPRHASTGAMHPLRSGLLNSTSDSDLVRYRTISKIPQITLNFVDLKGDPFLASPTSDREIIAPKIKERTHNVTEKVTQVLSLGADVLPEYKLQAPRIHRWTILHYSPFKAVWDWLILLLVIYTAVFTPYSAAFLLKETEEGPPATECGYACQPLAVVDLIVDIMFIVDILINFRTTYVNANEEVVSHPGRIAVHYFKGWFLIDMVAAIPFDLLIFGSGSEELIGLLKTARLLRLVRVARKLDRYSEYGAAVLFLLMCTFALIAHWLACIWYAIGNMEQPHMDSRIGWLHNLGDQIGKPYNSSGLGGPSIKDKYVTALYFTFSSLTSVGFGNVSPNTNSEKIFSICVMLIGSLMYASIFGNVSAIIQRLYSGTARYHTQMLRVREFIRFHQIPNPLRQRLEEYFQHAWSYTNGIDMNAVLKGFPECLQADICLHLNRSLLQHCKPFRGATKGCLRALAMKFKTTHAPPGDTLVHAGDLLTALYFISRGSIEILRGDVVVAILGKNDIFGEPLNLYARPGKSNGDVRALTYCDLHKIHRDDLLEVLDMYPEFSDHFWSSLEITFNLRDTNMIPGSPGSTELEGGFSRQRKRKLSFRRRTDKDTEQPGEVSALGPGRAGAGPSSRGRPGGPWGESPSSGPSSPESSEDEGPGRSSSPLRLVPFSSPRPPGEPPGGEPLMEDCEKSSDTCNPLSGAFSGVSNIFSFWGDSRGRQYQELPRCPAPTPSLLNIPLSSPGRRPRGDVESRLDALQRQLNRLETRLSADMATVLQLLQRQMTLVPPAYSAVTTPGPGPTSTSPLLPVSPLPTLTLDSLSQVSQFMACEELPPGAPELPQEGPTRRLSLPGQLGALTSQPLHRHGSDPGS

For `COc1ccc(-c2cc(=O)c3c(O)cc(O)c(-c4cc(-c5cc(=O)c6c(O)cc(O)cc6o5)ccc4OC)c3o2)cc1` [ISOGK, Isoginkgetin], the “incorporation of [1,2-14C]-acetate into fatty acids and cholesterol” value [1] was “inhibition of lipogenesis”, the Kd (recombinant ACLY protein) was 5.1 µM and the IC50 (hERG channel) was over 30 µM. For the same molecule, the “cytotoxicity (CCK-8)” value [2] was “no significant cytotoxicity” and the “antioxidant activity against copper-induced LDL oxidation (REM)” value [3] was “no antioxidant activity”.
